Source: patent US20250073226A1, “USE OF OPIOID FOR TREATMENT OF AUTISM SPECTRUM DISORDERS” (priority 2021, published 2025)
“And” between values parts separate entries of the source, which are not always exact repeats. Equal values may be shown once.

Tests used:
[1] = tested on: model similar to this experiment; details: 3 hours after administration; Horm Behav. 2017 November; 96:130-136; cited from earlier work
mice = details: Non-patent Document 28; cited from earlier work
[2] = Pharmacokinetic: drug concentrations in plasma by LC-MS after subcutaneous administration; details: ICR mice
[3] = morphine hydrochloride 0.03 mg/kg s.c., Average value
[4] = morphine hydrochloride 0.03 mg/kg s.c., individual animals
[5] = morphine hydrochloride 0.1 mg/kg s.c., Average value
[6] = morphine hydrochloride 0.1 mg/kg s.c., individual animals
[7] = morphine hydrochloride 3 mg/kg s.c., Average value
[8] = morphine hydrochloride 3 mg/kg s.c., individual animals

Structure (SMILES): CC[C@H](C)[C@@H]1NC(=O)[C@H](Cc2ccc(O)cc2)NC(=O)[C@@H](N)CSSC[C@@H](C(=O)N2CCC[C@H]2C(=O)N[C@@H](CC(C)C)C(=O)NCC(N)=O)NC(=O)[C@H](CC(N)=O)NC(=O)[C@H](CCC(N)=O)NC1=O [oxytocin]
- improvement effect of social impairment, persistence [1]: the drug efficacy disappears

Structure (SMILES): CN1CC[C@]23c4c5ccc(O)c4O[C@H]2[C@@H](O)C=C[C@H]3[C@H]1C5 [morphine]
- dose at which the analgesic effect was maximum (mice): 8 mg/kg

Structure (SMILES): CN1CC[C@]23c4c5ccc(O)c4O[C@H]2[C@@H](O[C@@H]2O[C@H](C(=O)O)[C@@H](O)[C@H](O)[C@H]2O)C=C[C@H]3[C@H]1C5 [M6G]
- Plasma concentration M6G After 15 minutes [2, 3]: 13.2 ng/mL
- Plasma concentration M6G After 60 minutes [2, 3]: 5.09 ng/mL
- Plasma concentration M6G After 90 minutes [2, 3]: 0.488 ng/mL
- Plasma concentration M6G After 15 minutes [2, 4]: 10.4 ng/mL and 15.7 ng/mL and 13.6 ng/mL
- Plasma concentration M6G After 60 minutes [2, 4]: 6.28 ng/mL and 5.05 ng/mL and 3.95 ng/mL
- Plasma concentration M6G After 90 minutes [2, 4]: 0 ng/mL and 0.806 ng/mL and 0.657 ng/mL
- Plasma concentration M6G After 15 minutes [2, 5]: 44.6 ng/mL
- Plasma concentration M6G After 90 minutes [2, 5]: 3.41 ng/mL
- Plasma concentration M6G After 60 minutes ([2]; morphine hydrochloride 0.1 mg/kg s.c., Average value (N = 3 excluded as outlier)): 7.65 ng/mL
- Plasma concentration M6G After 15 minutes [2, 6]: 47.7 ng/mL and 35.3 ng/mL and 50.7 ng/mL
- Plasma concentration M6G After 60 minutes [2, 6]: 0 ng/mL and 15.3 ng/mL
- Plasma concentration M6G After 90 minutes [2, 6]: 2.98 ng/mL and 4.4 ng/mL and 2.85 ng/mL
- Plasma concentration M6G After 15 minutes [2, 7]: 1196 ng/mL
- Plasma concentration M6G After 60 minutes [2, 7]: 646 ng/mL
- Plasma concentration M6G After 90 minutes [2, 7]: 298 ng/mL
- Plasma concentration M6G After 15 minutes [2, 8]: 1250 ng/mL and 1340 ng/mL and 998 ng/mL
- Plasma concentration M6G After 60 minutes [2, 8]: 829 ng/mL and 580 ng/mL and 528 ng/mL
- Plasma concentration M6G After 90 minutes [2, 8]: 320 ng/mL and 240 ng/mL and 335 ng/mL
